Measured values as given in BindingDB's records for doi:10.1021/jm034065z (Pfizer, 2003).

Molecular target: Aldo-keto reductase family 1 member B1 (Homo sapiens, UniProt P15121)
Assay: In Vitro Aldose Reductase Inhibition Assay
Details: pH 7; 24 °C
Method: The activity of the enzyme was determined spectrophotometrically by monitoring the change in absorbance at 340 nm, which is due to the disappearance of NADPH. Inhibition by test compound was measured as the percentage decrease in the rate of NADPH oxidation as compared to a sample without test compound. The determination of the IC50 values was performed by using linear regression analysis of the log dose response curve.

IC50 [nM] | SMILES
150 | O=c1ccc(S(=O)(=O)c2cc3ccccc3o2)n[nH]1
25 | O=c1ccc(S(=O)(=O)c2cc3cc(Cl)ccc3o2)n[nH]1
